The target of one data set is T1, HDAC4 (Homo sapiens, UniProt P56524).
T1 construct: The full-length human HDACs were recombinantly expressed and purified from SF9 insect cells; host or cells: SF9 insect cells
The experiment in a line: HDAC EMSA activity assay (Nanosyn). The format is biochemical. For orientation: Mobility shift assays separate free from complexed probe on a gel.

Data set [1] relates to cleavage of PARP-1 and Caspase-3. Put plainly: Western blot of apoptosis markers in MV4-11 cells. In kind it is cell-based. The conditions noted are these: MV4-11, 6 h, 0.5 μM. The protocol: (§1) Briefly, MV4-11 cells were incubated with inhibitors prior to cell lysis with radioimmunoprecipitation assay (RIPA) buffer (20 mM Tris pH 7.4, 150 mM NaCl, 0.5% deoxycholate, 1% Triton X-100, and 0.1% sodium dodecyl sulfate (SDS)). Total protein content was determined through a BCA assay (ThermoFisher), resolved via a 4–20% polyacrylamide SDS gel, and transferred to a nitrocellulose membrane (Bio-Rad). The membranes were blocked with a 5% solution (skimmed milk powder in PBS-T). This was followed by incubation at 4 °C (overnight) with the following antibodies: acetylated α-tubulin mouse monoclonal (MABT868, EMD Millipore), acetylated histone H3 (Ac-Lys18, 07–354, Sigma), PARP-1 (ab227244, Abcam), apoptosis Western blot cocktail (136812, Abcam), cleaved PARP-1 (ab32561, Abcam), and HSC70 (sc-7298, Santa Cruz). Following overnight incubation, horseradish peroxidase (HRP)-conjugated goat anti-mouse IgG secondary antibody (7076, Cell Signaling) or HRP-linked anti-rabbit IgG secondary antibody (7074, Cell Signaling) was applied to the membrane in a 1:5000 dilution. The bands were visualized using clarity Western ECL substrate luminal/enhancer solution and peroxide solution. Western blotting analysis was carried out using Image lab software (Bio-Rad).[47],[50],[70]
(Immunoblotting shows a protein as a band on a membrane.)

In a further data set the target is T2, HDAC11 (Homo sapiens, UniProt Q96DB2).
T2 construct: The full-length human HDACs were recombinantly expressed and purified from SF9 insect cells; host or cells: SF9 insect cells
T2 sequence (Q96DB2 1-347): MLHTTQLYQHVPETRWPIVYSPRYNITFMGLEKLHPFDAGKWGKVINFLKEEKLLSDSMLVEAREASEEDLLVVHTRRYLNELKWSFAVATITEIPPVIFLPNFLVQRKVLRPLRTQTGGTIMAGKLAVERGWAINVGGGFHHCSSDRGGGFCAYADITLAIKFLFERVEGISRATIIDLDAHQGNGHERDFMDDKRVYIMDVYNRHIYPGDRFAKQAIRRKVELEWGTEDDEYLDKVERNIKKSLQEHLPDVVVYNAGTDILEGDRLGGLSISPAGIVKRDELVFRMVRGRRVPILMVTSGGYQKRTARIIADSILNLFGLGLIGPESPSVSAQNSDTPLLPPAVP
Put plainly: HDAC EMSA activity assay (Nanosyn). The format is biochemical. The conditions noted are these: read-out: IC50 HDAC11.

The nature of data set [2]: In vitro stability in mouse hepatocytes. In kind it is in vitro ADME. The protocol:
The inhibitors (and controls) were formulated to concentrations of 100 μM in 50% acetonitrile/50% water. The medium (William’s E Medium supplemented with GlutaMAX) and hepatocyte thawing medium were allowed to reach room temperature and the hepatocytes and thawing medium and centrifuged at 100 g for 10 min. The supernatant was removed, and hepatocytes resuspended in the incubation medium (∼1.5 × 10^6 cells/mL). The cells were diluted to 0.5 × 10^6 viable cells/mL. A volume of 198 μL of hepatocytes was transferred to a 96-well noncoated plate and incubated at 37 °C for 10 min. Following this, 2 μL of the 100 μM test compounds or positive control was transferred into respective wells to start the reaction. At different time points (0, 15, 30, 60, 90, and 120 min), 25 μL aliquots were mixed with 6 volumes (150 μL) of acetonitrile containing internal standard, IS (100 nM alprazolam, 200 nM labetalol, 200 nM caffeine, and 200 nM diclofenac) to terminate the reaction. Samples were vortexed for 5 min and centrifuged for 45 min at 3220g, diluted by ultrapure water, followed by LC/MS/MS analysis. The in vitro half-life (T1/2) was determined by regression analysis of the percent parent disappearance vs time curve (T1/2 = 0.693/k) using Microsoft Excel.

The next data set concerns acetylation of α-tubulin. Put plainly: Immunofluorescence assay in HeLa cells. The following applies: 6 h, increasing doses. In kind it is cell-based. How it is done: (§2) HeLa cells were plated to subconfluency on a 96-well plate (clear bottom black from Fisher Scientific). As above, inhibitors were introduced following 24 h. The cells were washed with 1× PBS, fixed with 4% formaldehyde (Millipore Sigma), permeabilized with 1% Triton X-100 (Millipore Sigma), and blocked in 5% bovine serum albumin (BSA) (BioShop) for 1 h at room temperature. Following this treatment, the cells were incubated in a cocktail composed of acetylated α-tubulin mouse monoclonal (1:100 dilution, MD Millipore) and acetylated histone H3 (1:50 dilution, Ac-Lys18, Sigma) antibodies. Secondary antibodies anti-mouse Alexa Fluor 647 and anti-rabbit Alexa Fluor 488 were used for immunofluorescent detection. Cells were counterstained for nucleic acids using 4′,6-diamidino-2-phenylindole (DAPI) (ThermoFisher Scientific). The cells were imaged with a Cytation S63 spectrophotometer and the fluorescence intensity was determined using ImageJ (n = 3). Two-way ANOVA with Tukey’s multiple comparisons test were performed using GraphPad Prism 6.0 (GraphPad Software Inc.). A p-value ≤ 0.05 was considered significant.

For data set [3], the system named is acetylation of histone H3. The experiment in a line: Immunofluorescence assay in HeLa cells. The format is cell-based. The following applies: 6 h, increasing doses. The protocol: as §2
The test system of the next data set is acetylated α-tubulin. Put plainly: Western blot in MV4-11 cells. The conditions noted are these: MV4-11, 6 h, higher inhibitor concentrations. The format is cell-based. How it is done: as §1
The nature of data set [4]: Glutathione stability / reactivity assay. In kind it is in vitro ADME. The conditions noted are these: GSH adduct formation by LC/MS/MS; KT-531 up to 24 h. The protocol: Although covalent modification of HDAC6 was not observed (Figure S2), the PFBS group is susceptible to nucleophilic aromatic substitution by biological nucleophiles. A previously described high-throughput in vitro glutathione-reactivity assay was conducted, where compounds were incubated in the presence of glutathione (GSH) and the formation of a GSH-compound adduct was monitored over time via LC/MS/MS.[50]
Compound was added to PBS and 5 mM GSH to reach a final concentration of 5 μM. […] Samples were vortexed and centrifuged for 45 min at 3220g. Aliquots were diluted by ultrapure water, and used for LC/MS/MS analysis. Peak area ratios were determined and percent compounds remaining was calculated by the following equation: [drawing 1] where peak area ratio (t min) is the peak area ratio of control and test compounds at t min; peak area ratio0min is the peak area ratio of control and test compounds at the zero time point. In vitro half-life (t1/2) = −(0.693/k).

The target of another data set is T3, HDAC2 (Homo sapiens, UniProt Q92769).
T3 construct: The full-length human HDACs were recombinantly expressed and purified from SF9 insect cells; host or cells: SF9 insect cells
T3 sequence (Q92769 whole entry): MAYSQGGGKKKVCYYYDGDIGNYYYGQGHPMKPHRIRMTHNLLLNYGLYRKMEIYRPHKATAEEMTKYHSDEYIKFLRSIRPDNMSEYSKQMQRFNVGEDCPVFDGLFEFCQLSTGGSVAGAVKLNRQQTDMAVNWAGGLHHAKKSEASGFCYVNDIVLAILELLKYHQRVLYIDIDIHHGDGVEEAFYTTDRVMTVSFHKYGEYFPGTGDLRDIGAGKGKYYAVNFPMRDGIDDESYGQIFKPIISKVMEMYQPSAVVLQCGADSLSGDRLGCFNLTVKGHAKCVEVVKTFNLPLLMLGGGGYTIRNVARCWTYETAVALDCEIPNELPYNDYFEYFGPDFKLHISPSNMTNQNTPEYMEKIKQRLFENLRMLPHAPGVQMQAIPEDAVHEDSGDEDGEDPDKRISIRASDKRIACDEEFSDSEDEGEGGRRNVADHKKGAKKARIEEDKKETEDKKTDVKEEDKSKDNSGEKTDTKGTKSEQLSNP
The experiment in a line: HDAC EMSA activity assay (Nanosyn). The format is biochemical.

Setting [5] is: read-out: Stability in mouse hepatocytes t1/2.

Each structure is given as a SMILES string. Entries after “also recorded” stand apart in the source; their conditions may differ. A value given as a limit tells only on which side of the number the result lay.

As usually defined, the IC50 is the concentration that inhibits the measured activity by half. What is called hepatocyte CLint is the capacity of the preparation to metabolise the compound, expressed as a volume cleared per time. Higher therefore signals faster metabolism.

T1 sequence (P56524 whole entry): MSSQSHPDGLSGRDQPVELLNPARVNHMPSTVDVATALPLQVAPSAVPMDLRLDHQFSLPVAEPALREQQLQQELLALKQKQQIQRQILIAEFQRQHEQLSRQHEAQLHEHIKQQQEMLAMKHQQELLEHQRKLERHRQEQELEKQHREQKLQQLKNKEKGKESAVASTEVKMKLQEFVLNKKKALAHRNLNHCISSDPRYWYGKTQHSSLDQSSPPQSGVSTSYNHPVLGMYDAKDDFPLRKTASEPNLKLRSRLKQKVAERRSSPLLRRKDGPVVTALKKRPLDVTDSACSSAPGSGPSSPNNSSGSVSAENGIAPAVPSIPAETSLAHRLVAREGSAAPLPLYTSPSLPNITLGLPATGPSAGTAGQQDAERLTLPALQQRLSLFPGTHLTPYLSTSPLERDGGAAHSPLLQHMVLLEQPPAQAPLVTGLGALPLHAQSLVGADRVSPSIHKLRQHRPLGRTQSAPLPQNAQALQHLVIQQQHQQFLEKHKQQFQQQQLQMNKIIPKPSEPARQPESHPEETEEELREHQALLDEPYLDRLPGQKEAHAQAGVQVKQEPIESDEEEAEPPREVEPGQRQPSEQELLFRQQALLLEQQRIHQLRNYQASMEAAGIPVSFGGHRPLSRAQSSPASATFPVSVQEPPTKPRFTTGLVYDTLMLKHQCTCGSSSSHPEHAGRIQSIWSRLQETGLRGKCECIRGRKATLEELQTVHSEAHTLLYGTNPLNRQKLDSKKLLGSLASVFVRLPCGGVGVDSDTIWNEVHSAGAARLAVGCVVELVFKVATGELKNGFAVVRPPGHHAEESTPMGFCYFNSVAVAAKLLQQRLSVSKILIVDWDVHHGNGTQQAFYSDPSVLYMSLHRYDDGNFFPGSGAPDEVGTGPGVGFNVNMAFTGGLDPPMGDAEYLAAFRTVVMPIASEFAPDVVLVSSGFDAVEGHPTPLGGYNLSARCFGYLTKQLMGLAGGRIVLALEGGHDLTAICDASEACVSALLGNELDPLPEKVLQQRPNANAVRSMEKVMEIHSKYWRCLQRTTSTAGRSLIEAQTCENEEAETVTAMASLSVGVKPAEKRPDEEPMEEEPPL

Regarding `O=C(NO)c1ccc(CN(C2CC2)S(=O)(=O)c2cc(F)c(F)c(F)c2F)cc1` [Compound 14, 4-(((N-Cyclopropyl-2,3,4,5-tetrafluorophenyl)sulfonamido)methyl)-N-hydroxybenzamide], the IC50 against HDAC4, at HDAC11 and against HDAC2 was more than 1000 nM in each case. The “cleavage of PARP-1 and Caspase-3” value in data set [1] was “Cleavage of PARP-1 and Caspase-3”. The compound further gave a hepatocyte CLint at 2 h, 1 μM in data set [2] of 37.6 ± 0.6 µL/min/1e6 cells. Moreover, the half-life at 1 μM in data set [2] (setting [5]) was found to be 37 min. In addition, in data set [2] (setting [5]), the half-life at 2 h, 1 μM came out at 36.9 ± 0.59 min. Besides, the “acetylation of α-tubulin (immunofluorescence)” value with acetylation of α-tubulin was “significant acetylation of α-tubulin was observed”. Further, the “acetylation of histone H3 (immunofluorescence)” value in data set [3] is on record as “no observable change in acetylation of histone H3”. The “acetylated α-tubulin levels (Western blot)” value in the data set on acetylated α-tubulin is “comparable between citarinostat and KT-531”. Besides, the “reactivity with glutathione” value in data set [4] is given as “no discernible reactivity with GSH; also recorded: no discernible SNAr reaction with GSH”.

The values above are taken from paper PMC8237267 (Journal of Medicinal Chemistry, 2021).
